Experiment [1] deals with mdx mice. The experiment can be described thus: Autonomic blockade, ECG heart rate and heart-rate variability in conscious mdx mice. Type of experiment: in vivo, mouse. The procedure:
(§1) Male control C57BL/10ScSn (C57, n=15) and male mutant (mdx, n=15) mice (10-12 weeks old) were obtained from The Jackson Laboratory, Bar Harbor, Me. The animals were housed in standard conditions within the Animal Resource Facility at the Beth Israel Deaconess Medical Center. Handling and care of mice were consistent with federal and institutional guidelines.
(§2) ECGs were recorded in conscious mice as follows. Briefly, mice were gently removed from their cages and positioned on the ECG recording platform (AnonyMOUSE, Mouse Specifics, Inc., Boston, Mass.). An array of gel-coated ECG electrodes were embedded in the floor of the platform and spaced to provide contact between the electrodes and animals' paws. The electrodes were connected to an amplifier by three shielded conductive leads. As even modest handling of mice induces significant alterations in heart-rate, each mouse was permitted to acclimatize for 10 min prior to collection of baseline data. The signals were digitized with 16-bit precision at a sampling rate of 2000 samples/second. When mice were sitting or otherwise positioned such that the paws were not in contact with three electrodes, the output from the amplifier was discarded. Only data from continuous recordings of 15-25 ECG signals were used in the analyses.
Analyses of the ECGs were performed as described as follows. Each signal was analyzed using e-MOUSE, internet-based physiologic waveform analyses software. […] The mean of the ECG time intervals for each set of waveforms is then calculated.
(§3) Heart-rate variability (HRV) was calculated as the standard deviation of all R—R intervals for each set of ECG signals. The coefficient of variance (CV,%) was calculated as the ratio of mean HRV to mean heart-rate.
Parasympathetic and sympathetic nervous system control of heart-rate regulation were investigated by pharmacological blockade. […] Baseline ECGs were recorded within 5 min prior to each administration and after a 5-10 min equilibrium phase after drug administration to allow for HR stabilization. […]

The subject of experiment [2] is C57 mice. Nature of the experiment: Autonomic blockade, ECG heart rate and heart-rate variability in conscious C57 control mice. The format is in vivo, mouse. The procedure:
as §1, §2
Analyses of the ECGs were performed as described as follows. Each signal was analyzed using e-MOUSE, internet-based physiologic waveform analyses software. The program incorporates Fourier analyses and linear time-invariant digital filtering of frequencies below 2 Hz and above 100 Hz to minimize signal environmental disturbances. The software uses a peak detection algorithm to find the peak of the R-waves and to calculate heart-rate (HR). The inverted and/or biphasic portions of the T wave was included in calculations of the QT interval. The QT intervals were rate corrected (QTc) by an algorithm developed for use in mice. The software plots its interpretation of P, Q, R, S, and T for each beat so that spurious data resulting from unfiltered noise or motion artifacts may be rejected. The mean of the ECG time intervals for each set of waveforms is then calculated.
as §3
Parasympathetic and sympathetic nervous system control of heart-rate regulation were investigated by pharmacological blockade. Mice received intraperitoneal administration of atropine (0.5 mg/kg) for parasympathetic blockade (n=15 mdx, n=15 C57), propranolol (1 mg/kg) for sympathetic blockade (n=10 mdx, n=7 C57), and atropine (0.5 mg/kg) plus propranolol (1 mg/kg) for combined β-adrenergic and muscarinic cholinergic blockade (n=10 mdx, n=7 C57). Baseline ECGs were recorded within 5 min prior to each administration and after a 5-10 min equilibrium phase after drug administration to allow for HR stabilization. The pharmacological interventions were performed on different days to prevent interference between drugs. […]
To study the effect of autonomic blockers on dystrophin deficient mice, parasympathetic and sympathetic nervous system control of heart-rate regulation were investigated by pharmacological blockade. […] Baseline ECGs were recorded within 5 min prior to each administration and after a 5-10 min equilibrium phase after drug administration to allow for HR stabilization.

In experiment [3] the test system is nNOS -/- mice. Nature of the experiment: Autonomic blockade, ECG heart rate and heart-rate variability in conscious nNOS -/- mice.
Experiment [4] concerns mdx mice. The experiment can be described thus: Baroreflex pressor response to phenylephrine after β-adrenergic blockade in mdx mice. The format is in vivo, mouse. The following applies: phenylephrine 3 mg/kg i.p. after propranolol 1 mg/kg. As for the experimental part: as §2
(§4) Analyses of the ECGs were performed as described as follows. Each signal was analyzed using e-MOUSE, internet-based physiologic waveform analyses software. The program incorporates Fourier analyses and linear time-invariant digital filtering of frequencies below 2 Hz and above 100 Hz to minimize signal environmental disturbances. […] The mean of the ECG time intervals for each set of waveforms is then calculated.
as §3
(§5) Mice were administered intraperitoneal phenylephrine (3 mg/kg) after β-adrenergic blockade with propranolol (1 mg/kg) to test for a baroreflex-mediated cardio-inhibitory response (n=10 mdx, n=7 C57).16,21 After baseline recordings, ECGs were recorded after a 5-10 min equilibrium phase following propranolol administration to allow for HR stabilization, and then within 2 min following phenylephrine administration. Changes in ECG indices following phenylephrine were determined relative to those recorded following propranolol administration. […]

The test system of experiment [5] is C57 mice. The experiment can be described thus: Baroreflex pressor response to phenylephrine after β-adrenergic blockade in C57 mice. The following applies: phenylephrine 3 mg/kg i.p. after propranolol 1 mg/kg. Type of experiment: in vivo, mouse. As for the experimental part: as §2, §4, §3, §5
Experiment [6] has as its system nNOS -/- mice. The experiment can be described thus: Baroreflex pressor response to phenylephrine in nNOS -/- mice. Type of experiment: in vivo, mouse.
The test system of a further experiment is B6129 mice. Nature of the experiment: Baroreflex pressor response to phenylephrine in B6129 control mice. The format is in vivo, mouse.
The mark [7] stands for this setting: C57 mice, i.p., 5-10 min after drug vs baseline, atropine 0.5 mg/kg, propranolol 1 mg/kg.
[8] abbreviates: within 2 min, relative to post-propranolol.
Setting [9] is: phenylephrine after propranolol.

Take `CN1[C@@H]2CC[C@H]1C[C@@H](OC(=O)C(CO)c1ccccc1)C2` (stereo partly shown) [atropine]: the “direction of heart-rate change in individual mice” value is on record as “decreased in all 15 mdx mice” in the experiment with mdx mice [1] (mdx mice n=15, atropine 0.5 mg/kg i.p.) and “increased in all but 2 of the C57 mice” in the experiment with C57 mice [2] (C57 mice n=15, atropine 0.5 mg/kg i.p.). The “HR decreased by” value in the experiment on mdx mice [1] (mdx mice, atropine 0.5 mg/kg i.p., FIG. 2a legend) is listed as 90±14 bpm. Moreover, the “HRV after atropine administration” value came out at 0.5 ± 0.9 ms in the experiment on C57 mice [2] (C57 mice, atropine 0.5 mg/kg i.p., baseline 2.7±0.9 ms) and 0.7 ± 0.1 ms in the experiment with nNOS -/- mice [3] (from 2.6±0.1 ms, P<0.05). Moreover, in the experiment with C57 mice [2] (setting [7]), the “change in HRV” value is -1.6 ± 0.7 ms. In addition, in the experiment on nNOS -/- mice [3] (FIG. 5), the “directional change in HR in response to drug” value is on record as “significantly increased HR”. Besides, the “HR after atropine administration” value in the experiment with nNOS -/- mice [3] (baseline 686±22 bpm, P=0.07) was found to be 721±12 bpm. The “CV after atropine administration” value with nNOS -/- mice [3] (from 2.7±0.8%, P<0.05) is on record as 0.8±0.1%.
As for `CNC[C@H](O)c1cccc(O)c1` [phenylephrine], the “CV after phenylephrine administration” value with mdx mice [4] amounted to 6.0±1.7%; in the experiment with C57 mice [5], 15.8±2.4%. For the same compound, the “HRV after phenylephrine administration” value with mdx mice [4] is 8.5 ± 2.5 ms; in the experiment on C57 mice [5], 28.6 ± 4.1 ms. The “change in HR after phenylephrine” value with mdx mice [4] (setting [8]) is reported as −132±27 bpm; in the experiment on C57 mice [5] (setting [8]), −312±27 bpm; with nNOS -/- mice [6] (setting [9]), −288±39 bpm; in the experiment with B6129 mice (setting [9]) it was −360±6 bpm. In addition, the “increase in HRV after phenylephrine” value is “+13.3±3.7 ms” in the experiment with nNOS -/- mice [6] (Example 4) and “+11.8±3.7 ms” in the experiment on B6129 mice (Example 4).
For `CC(C)NCC(O)COc1cccc2ccccc12` (stereo not shown) [propranolol], the “change in HR” value in the experiment on mdx mice [1] (mdx mice, i.p., 5-10 min after drug vs baseline, atropine 0.5 mg/kg, propranolol 1 mg/kg, mean±SE) is given as −60±27 bpm; in the experiment with C57 mice [2] (C57 mice, i.p., 5-10 min after drug vs baseline, atropine 0.5 mg/kg, propranolol 1 mg/kg, mean±SE) it was −122±53 bpm. Moreover, the “change in HRV” value in the experiment with C57 mice [2] (setting [7]) is “more significant in C57 than mdx mice”.

For the origin of these results see patent US6875418B2, “Method of early detection of Duchenne muscular dystrophy and other neuromuscular disease” (Mouse Specifics, Inc., priority 2001, dated 2005).
